Tested on: Mouse lymphoma TK cells
Assay: TK suspension cell assay, treatment with dilutions of BAK and ZDBC
Type: cell-based
Conditions: 72±2 hours; for dose dependence of the decrease in cell growth: serial dilutions, 5% or 10% FBS
Experimental: For each test material, data were collected and the mean and SD were calculated using Excel. The IC50 was calculated using SigmaPlot. Determination of cytotoxicity and test acceptance criteria followed those described in JMHLW and ISO 10993-5: The relative colony-forming rate/relative growth rate of positive control (reference material B) should be equal or less than 10%, and negative control (Wako disk) should be equal or greater than 80%.
Relative cell growth rate (%)=[100×(Test cell concentration at time 72 hours−mean of blank cell concentration at time 0)÷(mean of blank cell concentration at time 72 hours−mean of blank cell concentration at time 0)]. The results are expressed as the mean±standard deviation (SD) from three independent studies and each study has six replicates for each lens.
Phosphate buffer (Cat. #SH30028.02, HyClone, Logan, Utah) was used for dilutions of BAK (1.25, 2.5, 5, 10, 25, and 50 parts per million) (Cat. #B1068, Spectrum Chemical, New Brunswick, N.J.). A total of 900 μL of 2.2×10^4 cells/mL TK cells in assay medium (RPMIFBS10 or RPMIFBS05) were seeded in a 24-well plate and then treated with different dilutions of BAK (100 μL) to achieve final concentrations of 0.125, 0.25, 0.5, 1.0, 2.5, and 5 ppm. Phosphate buffer (100 μL)-treated cells served as a blank control, reference material B (diameter (ϕ): 14 mm) as a positive control, and Wako tissue culture plastic disk served a negative control. After 72±2 hours incubation, 600 μL cells were mixed and transferred into the counter vial. The relative cell growth rate was determined and calculated as described above. The results are expressed as the mean±SD based on three replicates.
DMSO was used to dissolve ZDBC powder (Cat. #Z1031, Spectrum Chemical, New Brunswick, N.J.) to make […], 0.1, 0.2, 0.4, 0.8, and 2 mg/mL dilutions. Next, 995 μL of 2.0×10^4 cells/mL TK cells in assay medium (either RPMIFBS10 or RPMIFBS05) were seeded in a 24-well plate and treated with 5 μL of different ZDBC dilutions to achieve final concentrations of 0.25, 0.5, 1, 2, 4, and 10 μg/mL. DMSO (5 μL)-treated cells served as a blank control, reference material B (diameter (ϕ): 14 mm) as a positive control, and Wako tissue culture plastic disk served a negative control. After 72±2 hours incubation, 600 μL cells were mixed and transferred into the counter vial. The relative cell growth rate was determined and calculated as described above. The results are expressed as the mean±SD based on three replicates.

IC50 (relative cell growth rate) (5% FBS) [ppm]	IC50 (relative cell growth rate) (10% FBS) [ppm]	Substance	cytotoxicity (at 0.25 and 0.125 ppm)	cell growth inhibition as compared to the blank control (at 5, 2.5, 1, and 0.5 ppm)	dose dependence of the decrease in cell growth	IC50 (relative cell growth rate) (5% FBS medium) [µg/mL]	IC50 (relative cell growth rate) (10% FBS medium) [µg/mL]
0.55	0.59	benzalkonium chloride [BAK]	not cytotoxic	significant cell growth inhibition	dose-dependent decrease in cell growth	–	–
–	–	zinc dibutyldithiocarbamate [ZDBC]	–	–	dose-dependent decrease in cell growth	2.0	4.5

Reference: patent publication US11378570B2, “Cytotoxicity test method for medical devices” (Alcon Inc., priority 2017, dated 2022)
